Reference: patent US6841366B1, “Biotin biosynthesis in bacillus subtilis” (DSM IP Assets B.V., priority 1993, dated 2005)

Key:
B. subtilis PY79 = assay: Crystal of biotin analog on plates, growth inhibition; type: cell-based; conditions: for Growth inhibition around crystal, zones of clearing: EMS-mutagenized PY79, TBAB plates, overnight at 37° C.; for Zones of killing around crystal: PY79, EMS1, EMS2 on TBAB, BIOS or MIN plates, after 24 h
Description: Biotin analogs were used to select for strains that were deregulated for biotin production. Among the mutations sought were those in a potential homolog of the E. coli birA gene. However, it is expected that selection for resistance to biotin analogs can also yield strains with mutations in the operator site(s) of birA, or in genes encoding functions responsible for the transport of the analogs into the cell. Analog-resistant mutants can also contain a gene or genes that encode enzymes resistant to inhibitors including, but not limited to, feedback inhibitors. Several biotin analogs (homobiotin, α-dehydrobiotin, and 5(2-thienyl)pentanoic acid) were obtained from Nippon Roche KK (Kanagsua, Japan). Mutagenized cells of B. subtilis were plated on TBAB (Difco Tryptose Blood Agar Base, cat. no. 0232-01-9) plates containing a crystal of each biotin analog.
An additional 27 mutants were selected subsequently in similar plate screenings for their resistance to the analogs homobiotin (HB) and α-dehydrobiotin (α-DB). For this latter selection, B. subtilis PY79 cultures were subjected to mutagenesis with EMS in two independent experiments. […] Overnight cultures of PY79, EMS1, and EMS2 grown in rich medium were plated on TBAB (rich), BIOS (biotin free) or MIN (glucose-minimal) plates and a crystal of homobiotin or α-dehydrobiotin was placed on each of the plates. […] Individual colonies were picked from homobiotin plates or α-dehydrobiotin plates and restreaked on BIOS plates containing α-dehydrobiotin or homobiotin.

[1] = system: B. subtilis PY79 and azelaic acid resistant mutants; assay: Growth inhibition by azelaic acid, minimal agar; type: cell-based; conditions: addition of 1 μg/l biotin
Description: Azelaic acid, a straight chain C9 dicarboxylic acid, is a homolog of pimelic acid and is thought to be an intermediate in the conversion of oleic acid to pimelic acid (see Ohsugi and Inoue (1981) Agric. Biol. Chem. 45: 2355-2356, hereby incorporated by reference).
Seven spontaneous mutants that outgrew the background of PY79 on 2 g/l Azelaic acid were isolated. The resistance to azelaic acid appeared to be a stable trait in all but one case (see below). The seven mutants were provisionally named PA1-PA7 (PY79 Azelaic acid resistant). PA1 through PA7 were grown in test tubes in VY medium, and biotin production was assayed using E. coli indicator strains (Table 15). The mutants fell into two classes, those that yielded more biotin than PY79 (PA5, PA6) and those that were similar to PY79 (PA1, 2, 3, and 7). PA4 appeared to be either unstable or not a true mutant and was dropped from further study. Applicants also noticed that the mutants fell into two classes with respect to colony size on minimal agar with 2 g/l azelaic acid, and that these two classes corresponded to the two classes of biotin producers (Table 11). The mutants with the most biotin in the supernatant (PA5 and PA6) gave small colonies, while the biotin non-secreters, PA1, 2, 3, and 7, gave large colonies. PA1 and PA3 secreted a compound that cross-fed PY79 (i.e., reversed the azelaic acid inhibition of PY79) on minimal plates containing 2 g/l azelaic acid.

[2] = system: bioW-lacZ translational fusion; assay: bioW-lacZ translational fusion integrated at the bio locus, β-galactosidase liquid ONPG assay; type: cell-based, B. subtilis
Description: A translational lacZ fusion was constructed to confirm the activity and regulation of the putative promoter and regulatory region, and to assess the relative level of expression of the B. subtilis biotin operon in a variety of contexts. This was accomplished by inserting a 3.1 kb BamHI-BglII fragment containing a promoter-less lacZ coding region into the BamHI site of pBIO350, to give pBIO397 and pBIO398.
To test the bioW-lacZ fusion for biotin-regulated expression in B. subtilis, Bio^+ partial diploids were constructed. The cat cassette was cloned into pBIO397 using the single SmaI site located within the polylinker region downstream from the lacZ gene. One recombinant plasmid, pBIO397cat, with the cat gene oriented in the same direction as the translational fusion, was used to generate Bio^+ partial diploids. Competent cells of the prototrophic B. subtilis strain PY79 were transformed with pBIO397cat plasmid DNA selecting for Cm^r. Transformants should only arise by recombination into the chromosome. This leaves an intact copy of the bio operon, allowing activity of the lac fusion to be assessed in the absence of added biotin.
The promoter of the BamHI to PstI fragment cloned in pBIO350 is regulated by biotin. Two Cm^r Bio^+ partial diploids containing the bioW-lacZ fusion were tested for β-galactosidase activity in biotin-free medium in the presence or absence of biotin (100 μg/liter). In liquid ONPG assays, both strains were regulated specifically by biotin. The level of β-galactosidase was repressed in the presence of biotin and induced in its absence to 24 to 85-fold higher specific activity (Table 3). This strain with the bioW::lacZ fusion integrated at the bio operon has also been used to isolate new biotin analog-resistant mutants (see below) on X-gal indicator plates.

PY79 bioI::cat = assay: Growth of bioI::cat mutants on biotin-free medium with supplements; type: cell-based, B. subtilis; conditions: biotin 33 μg/ml
SPβ::bioW-lacZ = assay: SPβ-borne single-copy bioW-lacZ translational fusion, β-galactosidase assay; type: cell-based, B. subtilis
Protocol: Other strains, in addition to the lacZ fusion strain of Example IVA, can be constructed for deciphering biotin regulatory mechanisms. For example, Applicants recognized that insertion of the plasmid-borne bioW-lacZ fusion into the chromosome causes technical problems because the integrated plasmid amplifies in copy number. Thus the expression of the bioW-lacZ fusion at single copy-number and at a site distinct from the bio operon was tested by introducing the fusion into a modified SPβ specialized transducing phage (see, e.g., Zuber et al., J. Bacteriol. 169:2223-2230, 1987, hereby incorporated by reference).
Two isolates of PY79 (SPβ::bioW-lacZ) and BI421 (SPβ::bioW-lacZ) were assayed for β-galactosidase activity as described above.
Biotin regulation was also examined in two independently isolated biotin analog-resistant mutants. HB3 contains a spontaneous birA mutation and α-DB9 contains an α-dehydrobiotin resistant mutation unlinked to either bio or birA. These strains were transduced, grown, and assayed as described above, except that α-DB9 (SPβ::bioW-lacZ) was assayed during mid-exponential growth.

[3] = system: B. subtilis birA/azl^r strains; assay: Screen of parents and Trp+ transductants for homobiotin resistance; type: cell-based; parameters: key to Homobiotin resistant/sensitive: R: resistant; S: sensitive
Description: The birA mutation from either HB3 or α-DB16 was introduced into either PA3 or PA6 by a two step transduction process. First, PA3 and PA6 were made Trp^− by transduction with trpE::Tn917lac (Perkins and Youngman, (Proc. Nat'l Acad. Sci USA 83:140-144 (1986)) selecting for erythromycin resistance. The birA mutations were transduced from HB3 or α-DB16, selecting for Trp^+. Parents and Trp^+ transductants were screened for homobiotin resistance and azelaic acid resistance. PA6 was homobiotin sensitive, so double mutants could be identified among Trp^+ transductants by screening for homobiotin resistant colonies. Only about 60% of Trp^+ transductants were also homobiotin resistant (this may be due to Tn917 distortion of the map distance between birA and trpE normally 90% linkage by transduction). PA3 was resistant to homobiotin, so direct identification of double mutants was not possible. However, 60% of the transductants were double mutants as judged by increased biotin secretion, see below.

O=C(O)CCCCc1cccs1 [5(2-thienyl) pentanoic acid, 5(2-thienyl)pentanoic acid]
Growth inhibition around crystal, zones of clearing (B. subtilis PY79): inhibited the growth

O=C(O)CCCC[C@@H]1SC[C@@H]2NC(=O)N[C@@H]21 [Biotin]
Reversal of azelaic acid growth inhibition of wild-type B. subtilis [1]: reversed
Fold Increase of β-galactosidase activity, −Biotin over +Biotin (100 μg/l) ([2]; PY79(bioW-lacZ)12A, Late Log): 24 Fold
β-galactosidase activity +Biotin (100 μg/l) ([2]; PY79(bioW-lacZ)12A, Late Log (OD600 0.7-0.8)): 0.47 Miller Units
Fold Increase of β-galactosidase activity, −Biotin over +Biotin (100 μg/l) ([2]; PY79(bioW-lacZ)12A, Late Stationary): 53 Fold
β-galactosidase activity +Biotin (100 μg/l) ([2]; PY79(bioW-lacZ)12A, Late Stationary (OD600 1.4-1.6)): 0.13 Miller Units
Fold Increase of β-galactosidase activity, −Biotin over +Biotin (100 μg/l) ([2]; PY79(bioW-lacZ)12A, Stationary): 65 Fold
β-galactosidase activity +Biotin (100 μg/l) ([2]; PY79(bioW-lacZ)12A, Stationary (OD600 1.1-1.4)): 0.17 Miller Units
Fold Increase of β-galactosidase activity, −Biotin over +Biotin (100 μg/l) ([2]; PY79(bioW-lacZ)14A, Late Log): 33 Fold
β-galactosidase activity +Biotin (100 μg/l) ([2]; PY79(bioW-lacZ)14A, Late Log (OD600 0.7--0.8)): 0.64 Miller Units
Fold Increase of β-galactosidase activity, −Biotin over +Biotin (100 μg/l) ([2]; PY79(bioW-lacZ)14A, Late Stationary): 85 Fold
β-galactosidase activity +Biotin (100 μg/l) ([2]; PY79(bioW-lacZ)14A, Late Stationary (OD600 1.213-1.320)): 0.10 Miller Units
Fold Increase of β-galactosidase activity, −Biotin over +Biotin (100 μg/l) ([2]; PY79(bioW-lacZ)14A, Stationary): 82 Fold
β-galactosidase activity +Biotin (100 μg/l) ([2]; PY79(bioW-lacZ)14A, Stationary (OD600 1.1-1.4)): 0.15 Miller Units
Growth of bioI::cat insertion colonies (PY79 bioI::cat): grew to wild-type levels
Fold Increase of β-galactosidase activity, −Biotin over +Biotin (100 μg/l) (SPβ::bioW-lacZ; BI421 (SPβ::bioW-lacZ)/#1 (birA)): 1.5 Fold
β-galactosidase activity +Biotin (100 μg/l) (SPβ::bioW-lacZ; BI421 (SPβ::bioW-lacZ)/#1 (birA), OD600 1.00-0.936): 0.67 Miller Units
Fold Increase of β-galactosidase activity, −Biotin over +Biotin (100 μg/l) (SPβ::bioW-lacZ; BI421 (SPβ::bioW-lacZ)/#3 (birA)): 0.9 Fold
β-galactosidase activity +Biotin (100 μg/l) (SPβ::bioW-lacZ; BI421 (SPβ::bioW-lacZ)/#3 (birA), OD600 1.07-0.92): 0.96 Miller Units
Fold Increase of β-galactosidase activity, −Biotin over +Biotin (100 μg/l) (SPβ::bioW-lacZ; HB3 (SPβ::bioW-lacZ)/#1 (birA)): 1.3 Fold
β-galactosidase activity +Biotin (100 μg/l) (SPβ::bioW-lacZ; HB3 (SPβ::bioW-lacZ)/#1 (birA), OD600 1.068-1.076): 0.24 Miller Units
Fold Increase of β-galactosidase activity, −Biotin over +Biotin (100 μg/l) (SPβ::bioW-lacZ; HB3 (SPβ::bioW-lacZ)/#3 (birA)): 0.8 Fold
β-galactosidase activity +Biotin (100 μg/l) (SPβ::bioW-lacZ; HB3 (SPβ::bioW-lacZ)/#3 (birA), OD600 1.213-1.320): 0.18 Miller Units
β-galactosidase repressed in the presence of biotin, induced in the absence of biotin (SPβ::bioW-lacZ; PY79 (SPβ::bioW-lacZ)): 9-15 fold
Fold Increase of β-galactosidase activity, −Biotin over +Biotin (100 μg/l) (SPβ::bioW-lacZ; PY79 (SPβ::bioW-lacZ)/#1): 15 Fold
β-galactosidase activity +Biotin (100 μg/l) (SPβ::bioW-lacZ; PY79 (SPβ::bioW-lacZ)/#1, OD600 1.04-1.08): 0.04 Miller Units
Fold Increase of β-galactosidase activity, −Biotin over +Biotin (100 μg/l) (SPβ::bioW-lacZ; PY79 (SPβ::bioW-lacZ)/#3): 9 Fold
β-galactosidase activity +Biotin (100 μg/l) (SPβ::bioW-lacZ; PY79 (SPβ::bioW-lacZ)/#3, OD600 0.988-0.960): 0.06 Miller Units
Fold Increase of β-galactosidase activity, −Biotin over +Biotin (100 μg/l) (SPβ::bioW-lacZ; α-D89 (SPβ::bioW-lacZ)/#1): 9.2 Fold
β-galactosidase activity +Biotin (100 μg/l) (SPβ::bioW-lacZ; α-D89 (SPβ::bioW-lacZ)/#1, OD600 0.892-0.528, one measurement): 0.18 Miller Units
Fold Increase of β-galactosidase activity, −Biotin over +Biotin (100 μg/l) (SPβ::bioW-lacZ; α-D89 (SPβ::bioW-lacZ)/#3): 12.3 Fold
β-galactosidase activity +Biotin (100 μg/l) (SPβ::bioW-lacZ; α-D89 (SPβ::bioW-lacZ)/#3, OD600 1.344-1.200): 0.11 Miller Units

O=C(O)CCCCC[C@@H]1SC[C@@H]2NC(=O)N[C@@H]21 [Homobiotin, homobiotin]
Homobiotin resistant/sensitive ([3]; parent PA3, birA donor HB3, isolate 1): R
Homobiotin resistant/sensitive ([3]; parent PA3, birA donor HB3, isolate 2): R
Homobiotin resistant/sensitive ([3]; parent PA3, birA donor α-DB16, isolate 1): R
Homobiotin resistant/sensitive ([3]; parent PA6, birA donor HB3, isolate 2): R
Homobiotin resistant/sensitive ([3]; parent PA6, birA donor HB3, isolate 6): R
Homobiotin resistant/sensitive ([3]; parent PA6, birA donor α-DB16, isolate 8): R
Homobiotin resistant/sensitive ([3]; parent PA6, birA donor α-DB16, isolate 14): R
Homobiotin resistant/sensitive ([3]; strain HB3): R
Homobiotin resistance of PA3 ([3]; strain PA3): resistant
Homobiotin resistant/sensitive ([3]; strain PA3): R
Homobiotin resistant/sensitive ([3]; strain PA6): S
Homobiotin sensitivity of PA6 ([3]; strain PA6): sensitive
Homobiotin resistant/sensitive ([3]; strain PY79): S
Homobiotin resistant/sensitive ([3]; strain α-DB16): R
Zones of killing around crystal (B. subtilis PY79): zones of killing were observed

O=C(O)/C=C/CCC1SCC2NC(=O)NC21 (stereo not drawn) [α-dehydrobiotin]
Growth inhibition around crystal, zones of clearing (B. subtilis PY79): inhibited the growth
Zones of killing around crystal (B. subtilis PY79): zones of killing were observed
